Source: ChEMBL document CHEMBL5338704, “Discovery of novel phenylhydrazone-based oxindole-thiolazoles as potent antibacterial agents toward Pseudomonas aeruginosa” (Eur J Med Chem, 2022)
Converted amounts (≈) assume the structure as drawn. The source made the active and inactive calls. No cut-off for these calls is given here.

How the values were obtained:
[1] = tested on: Escherichia coli; test: Antibacterial activity against Escherichia coli ATCC 25922 assessed as inhibition of bacterial growth by micro-broth dilution assay; assay type: functional
[2] = tested on: Staphylococcus aureus; test: Antibacterial activity against Staphylococcus aureus assessed as inhibition of bacterial growth by micro-broth dilution assay; assay type: functional
[3] = Hemolytic activity in RBC (unknown origin) assessed as hemolysis; assay type: toxicity, cell-based, Erythrocyte; conditions: red blood cells (erythrocytes)
[4] = tested on: Pseudomonas aeruginosa; test: Antibacterial activity against Pseudomonas aeruginosa assessed as inhibition of bacterial growth by micro-broth dilution assay; assay type: functional
[5] = tested on: Staphylococcus aureus; test: Antibacterial activity against Staphylococcus aureus ATCC 29213 assessed as inhibition of bacterial growth by micro-broth dilution assay; assay type: functional
[6] = tested on: Enterococcus faecalis; test: Antibacterial activity against Enterococcus faecalis assessed as inhibition of bacterial growth by micro-broth dilution assay; assay type: functional
[7] = tested on: Escherichia coli; test: Antibacterial activity against Escherichia coli assessed as inhibition of bacterial growth by micro-broth dilution assay; assay type: functional
[8] = tested on: Acinetobacter baumannii; test: Antibacterial activity against Acinetobacter baumannii assessed as inhibition of bacterial growth by micro-broth dilution assay; assay type: functional
[9] = tested on: Staphylococcus aureus; test: Antibacterial activity against methicillin resistant Staphylococcus aureus assessed as inhibition of bacterial growth by micro-broth dilution assay; assay type: functional
[10] = tested on: Klebsiella pneumoniae; test: Antibacterial activity against Klebsiella pneumoniae assessed as inhibition of bacterial growth by micro-broth dilution assay; assay type: functional
[11] = tested on: Staphylococcus aureus; test: Antibacterial activity against Staphylococcus aureus ATCC 25923 assessed as inhibition of bacterial growth by micro-broth dilution assay; assay type: functional
[12] = tested on: Pseudomonas aeruginosa; test: Antibacterial activity against Pseudomonas aeruginosa ATCC 27853 assessed as inhibition of bacterial growth by micro-broth dilution assay; assay type: functional
[13] = tested on: Pseudomonas aeruginosa; test: Antibacterial activity against Pseudomonas aeruginosa ATCC 27853 assessed as inhibition of bacterial growth at 4 times MIC measured upto 14 hrs; assay type: functional, organism-based
[14] = tested on: Pseudomonas aeruginosa; test: Antibacterial activity against Pseudomonas aeruginosa ATCC 27853 assessed as inhibition of bacterial growth measured after 6 hrs; assay type: functional, organism-based
[15] = tested on: Acinetobacter baumannii; test: Potency index, ratio of norfloxacin MIC to test compound MIC for antibacterial activity against Acinetobacter baumannii assessed as inhibition of bacterial growth by micro-broth dilution assay; assay type: functional

Compound	MIC [1] [µg/mL]	MIC [2] [µg/mL]	HC50 [3] [µg/mL]	MIC [4] [µg/mL]	MIC [5] [µg/mL]	MIC [6] [µg/mL]	MIC [7] [µg/mL]	MIC [8] [µg/mL]	MIC [9] [µg/mL]	MIC [10] [µg/mL]	MIC [11] [µg/mL]	MIC [12] [µg/mL]	Activity [13]	Activity [14]	Ratio [15]
Cn1ccnc1SCC(O)CN1C(=O)C(=O)c2ccccc21 (stereo not given)	64 (≈ 202 µM)	64 (≈ 202 µM)	> 512	64 (≈ 202 µM)	64 (≈ 202 µM)	128 (≈ 403 µM)	128 (≈ 403 µM)	64 (≈ 202 µM)	128 (≈ 403 µM)	64 (≈ 202 µM)	32 (≈ 101 µM)	64 (≈ 202 µM)			
Cn1nnnc1SCC(O)CN1C(=O)/C(=N\Nc2ccc(C(=O)O)cc2)c2ccccc21 (stereo not given)	16 (≈ 35.3 µM)	16 (≈ 35.3 µM)	292	128 (≈ 282 µM)	16 (≈ 35.3 µM)	8 (≈ 17.6 µM)	32 (≈ 70.6 µM)	32 (≈ 70.6 µM)	4 (≈ 8.82 µM)	32 (≈ 70.6 µM)	16 (≈ 35.3 µM)	32 (≈ 70.6 µM)			
CCn1cc(C(=O)O)c(=O)c2cc(F)c(N3CCNCC3)cc21 [NORFLOXACIN]	2 (≈ 6.26 µM)	2 (≈ 6.26 µM)		8 (≈ 25.1 µM)	2 (≈ 6.26 µM)	4 (≈ 12.5 µM)	8 (≈ 25.1 µM)	4 (≈ 12.5 µM)	8 (≈ 25.1 µM)	2 (≈ 6.26 µM)	4 (≈ 12.5 µM)	4 (≈ 12.5 µM)	Active	Active	
Cn1ccnc1SCC(O)CN1C(=O)/C(=N\Nc2ccc(Cl)cc2)c2ccccc21 (stereo not given)	128 (≈ 290 µM)	16 (≈ 36.2 µM)	151	64 (≈ 145 µM)	64 (≈ 145 µM)	4 (≈ 9.05 µM)	32 (≈ 72.4 µM)	16 (≈ 36.2 µM)	128 (≈ 290 µM)	2 (≈ 4.53 µM)	256 (≈ 579 µM)	32 (≈ 72.4 µM)			
Cc1ccc(N/N=C2\C(=O)N(CC(O)CSc3nccn3C)c3ccccc32)cc1 (stereo not given)	128 (≈ 304 µM)	128 (≈ 304 µM)	358	128 (≈ 304 µM)	256 (≈ 607 µM)	128 (≈ 304 µM)	64 (≈ 152 µM)	128 (≈ 304 µM)	256 (≈ 607 µM)	128 (≈ 304 µM)	128 (≈ 304 µM)	256 (≈ 607 µM)			
O=C1/C(=N\Nc2ccccc2)c2ccccc2N1CC(O)CSc1nc[nH]n1 (stereo not given)	64 (≈ 162 µM)	32 (≈ 81.1 µM)	375	16 (≈ 40.6 µM)	128 (≈ 324 µM)	32 (≈ 81.1 µM)	128 (≈ 324 µM)	128 (≈ 324 µM)	128 (≈ 324 µM)	128 (≈ 324 µM)	16 (≈ 40.6 µM)	128 (≈ 324 µM)			
O=C1C(=O)N(CC(O)CSc2nc[nH]n2)c2ccccc21 (stereo not given)	128 (≈ 421 µM)	128 (≈ 421 µM)	285	16 (≈ 52.6 µM)	64 (≈ 210 µM)	64 (≈ 210 µM)	64 (≈ 210 µM)	64 (≈ 210 µM)	64 (≈ 210 µM)	32 (≈ 105 µM)	32 (≈ 105 µM)	128 (≈ 421 µM)			
Cn1nnnc1SCC(O)CN1C(=O)/C(=N\Nc2ccccc2)c2ccccc21 (stereo not given)	16 (≈ 39.1 µM)	64 (≈ 156 µM)	406	16 (≈ 39.1 µM)	128 (≈ 313 µM)	32 (≈ 78.1 µM)	32 (≈ 78.1 µM)	2 (≈ 4.88 µM)	16 (≈ 39.1 µM)	2 (≈ 4.88 µM)	128 (≈ 313 µM)	32 (≈ 78.1 µM)			2
Cn1nnnc1SCC(O)CN1C(=O)C(=O)c2ccccc21 (stereo not given)	16 (≈ 50.1 µM)	32 (≈ 100 µM)	335	64 (≈ 200 µM)	64 (≈ 200 µM)	64 (≈ 200 µM)	64 (≈ 200 µM)	64 (≈ 200 µM)	64 (≈ 200 µM)	16 (≈ 50.1 µM)	128 (≈ 401 µM)	32 (≈ 100 µM)			
Cn1nnnc1SCC(O)CN1C(=O)/C(=N\Nc2ccc(Cl)cc2)c2ccccc21 (stereo not given)	4 (≈ 9.01 µM)	32 (≈ 72.1 µM)	> 512	16 (≈ 36 µM)	256 (≈ 577 µM)	64 (≈ 144 µM)	16 (≈ 36 µM)	1 (≈ 2.25 µM)	16 (≈ 36 µM)	2 (≈ 4.51 µM)	32 (≈ 72.1 µM)	32 (≈ 72.1 µM)			2
Cn1ccnc1SCC(O)CN1C(=O)/C(=N\Nc2ccc([N+](=O)[O-])cc2)c2ccccc21 (stereo not given)	128 (≈ 283 µM)	128 (≈ 283 µM)	> 512	256 (≈ 566 µM)	128 (≈ 283 µM)	128 (≈ 283 µM)	32 (≈ 70.7 µM)	64 (≈ 141 µM)	64 (≈ 141 µM)	32 (≈ 70.7 µM)	64 (≈ 141 µM)	16 (≈ 35.4 µM)			
Cn1nnnc1SCC(O)CN1C(=O)/C(=N\Nc2ccc([N+](=O)[O-])cc2)c2ccccc21 (stereo not given)	16 (≈ 35.2 µM)	64 (≈ 141 µM)	262	2 (≈ 4.4 µM)	16 (≈ 35.2 µM)	8 (≈ 17.6 µM)	64 (≈ 141 µM)	64 (≈ 141 µM)	8 (≈ 17.6 µM)	16 (≈ 35.2 µM)	4 (≈ 8.8 µM)	4 (≈ 8.8 µM)			
Cc1ccc(N/N=C2\C(=O)N(CC(O)CSc3nnnn3C)c3ccccc32)cc1 (stereo not given)	64 (≈ 151 µM)	2 (≈ 4.72 µM)	383	2 (≈ 4.72 µM)	16 (≈ 37.8 µM)	8 (≈ 18.9 µM)	32 (≈ 75.6 µM)	2 (≈ 4.72 µM)	8 (≈ 18.9 µM)	16 (≈ 37.8 µM)	4 (≈ 9.45 µM)	4 (≈ 9.45 µM)			2
O=C1/C(=N\Nc2ccc([N+](=O)[O-])cc2)c2ccccc2N1CC(O)CSc1nc[nH]n1 (stereo not given)	128 (≈ 291 µM)	32 (≈ 72.8 µM)	> 512	32 (≈ 72.8 µM)	32 (≈ 72.8 µM)	64 (≈ 146 µM)	64 (≈ 146 µM)	32 (≈ 72.8 µM)	32 (≈ 72.8 µM)	64 (≈ 146 µM)	128 (≈ 291 µM)	64 (≈ 146 µM)			
O=C1/C(=N\Nc2ccc(Cl)cc2)c2ccccc2N1CC(O)CSc1nc[nH]n1 (stereo not given)	8 (≈ 18.7 µM)	32 (≈ 74.6 µM)	350	16 (≈ 37.3 µM)	8 (≈ 18.7 µM)	4 (≈ 9.33 µM)	16 (≈ 37.3 µM)	128 (≈ 298 µM)	16 (≈ 37.3 µM)	4 (≈ 9.33 µM)	16 (≈ 37.3 µM)	32 (≈ 74.6 µM)			
Cn1ccnc1SCC(O)CN1C(=O)/C(=N\Nc2ccccc2)c2ccccc21 (stereo not given)	128 (≈ 314 µM)	128 (≈ 314 µM)	441	256 (≈ 628 µM)	128 (≈ 314 µM)	128 (≈ 314 µM)	128 (≈ 314 µM)	128 (≈ 314 µM)	128 (≈ 314 µM)	128 (≈ 314 µM)	256 (≈ 628 µM)	128 (≈ 314 µM)			
O=C(O)c1ccc(N/N=C2\C(=O)N(CC(O)CSc3nc[nH]n3)c3ccccc32)cc1 (stereo not given)	32 (≈ 73 µM)	64 (≈ 146 µM)	282	64 (≈ 146 µM)	4 (≈ 9.12 µM)	2 (≈ 4.56 µM)	8 (≈ 18.2 µM)	16 (≈ 36.5 µM)	4 (≈ 9.12 µM)	2 (≈ 4.56 µM)	8 (≈ 18.2 µM)	16 (≈ 36.5 µM)			
Cc1ccc(N/N=C2\C(=O)N(CC(O)CSc3nc[nH]n3)c3ccccc32)cc1 (stereo not given)	32 (≈ 78.3 µM)	32 (≈ 78.3 µM)	416	64 (≈ 157 µM)	8 (≈ 19.6 µM)	2 (≈ 4.9 µM)	32 (≈ 78.3 µM)	16 (≈ 39.2 µM)	16 (≈ 39.2 µM)	32 (≈ 78.3 µM)	4 (≈ 9.79 µM)	8 (≈ 19.6 µM)			
